ChEMBL document CHEMBL2375302, “Synthesis, antimicrobial, antiquorum-sensing, antitumor and cytotoxic activities of new series of fused [1,3,4]thiadiazoles” (Eur J Med Chem, 2013)
Converted amounts (≈) assume the structure as drawn.

Experiments:
[1] = Toxicity against brine shrimp larvae assessed as mortality at 500 ug/mL after 24 hrs by binocular microscopic analysis relative to control; assay type: organism-based; details: artemia salina, in vivo
[2] = test system: M14; assay: Growth inhibition of human M14 cells at 10 uM after 48 hrs by coulter counter analysis relative to control; assay type: functional; details: M14, 48 h, read-out: GI
[3] = test system: SR; assay: Growth inhibition of human SR cells at 10 uM after 48 hrs by coulter counter analysis relative to control; assay type: functional; details: read-out: GI
[4] = (§1) Toxicity against brine shrimp larvae assessed as mortality after 24 hrs by binocular microscopic analysis; assay type: organism-based; details: artemia salina, in vivo
[5] = test system: Artemia salina; assay: as §1; assay type: organism-based; details: in vivo, 24 h
[6] = test system: Staphylococcus aureus; assay: Antibacterial activity against Staphylococcus aureus at 5 mg/mL after 24 hrs; assay type: functional; details: read-out: DIZ
[7] = test system: UACC-62; assay: Growth inhibition of human UACC62 cells at 10 uM after 48 hrs by coulter counter analysis relative to control; assay type: functional; details: UACC-62, 48 h, read-out: GI
[8] = test system: MCF7; assay: Growth inhibition of human MCF7 cells at 10 uM after 48 hrs by coulter counter analysis relative to control; assay type: functional; details: MCF7, 48 h, read-out: GI
[9] = Toxicity against brine shrimp larvae assessed as mortality at 100 ug/mL after 24 hrs by binocular microscopic analysis relative to control; assay type: organism-based; details: artemia salina, in vivo
[10] = test system: IGROV-1; assay: Growth inhibition of human IGROV1 cells at 10 uM after 48 hrs by coulter counter analysis relative to control; assay type: functional; details: IGROV-1, 48 h, read-out: GI
[11] = Growth inhibition of human HCC2998 cells at 10 uM after 48 hrs by coulter counter analysis relative to control; assay type: functional; details: HCC 2998, 48 h, read-out: GI
[12] = test system: Aspergillus fumigatus; assay: Antifungal activity against Aspergillus fumigatus Af293 at 5 mg/mL after 48 hrs; assay type: functional; details: Af293, 48 h, read-out: DIZ
[13] = test system: SK-MEL-28; assay: Growth inhibition of human SK-MEL-28 cells at 10 uM after 48 hrs by coulter counter analysis relative to control; assay type: functional; details: SK-MEL-28, 48 h, read-out: GI
[14] = test system: MDA-MB-231; assay: Growth inhibition of human MDA-MB-231 cells at 10 uM after 48 hrs by coulter counter analysis relative to control; assay type: functional; details: MDA-MB-231, 48 h, read-out: GI
[15] = test system: Hs-578T; assay: Growth inhibition of human Hs578T cells at 10 uM after 48 hrs by coulter counter analysis relative to control; assay type: functional; details: read-out: GI
[16] = test system: SK-MEL-5; assay: Growth inhibition of human SK-MEL-5 cells at 10 uM after 48 hrs by coulter counter analysis relative to control; assay type: functional; details: SK-MEL-5, 48 h, read-out: GI
[17] = test system: OVCAR-3; assay: Growth inhibition of human OVCAR3 cells at 10 uM after 48 hrs by coulter counter analysis relative to control; assay type: functional; details: OVCAR-3, 48 h, read-out: GI
[18] = test system: SF-295; assay: Growth inhibition of human SF295 cells at 10 uM after 48 hrs by coulter counter analysis relative to control; assay type: functional; details: SF-295, 48 h, read-out: GI
[19] = Toxicity against brine shrimp larvae assessed as mortality at 1000 ug/mL after 24 hrs by binocular microscopic analysis relative to control; assay type: organism-based; details: artemia salina, in vivo
[20] = test system: BT-549; assay: Growth inhibition of human BT549 cells at 10 uM after 48 hrs by coulter counter analysis relative to control; assay type: functional; details: BT-549, 48 h, read-out: GI
[21] = test system: HCT-116; assay: Growth inhibition of human HCT116 cells at 10 uM after 48 hrs by coulter counter analysis relative to control; assay type: functional; details: HCT-116, 48 h, read-out: GI
[22] = test system: NCI-H23; assay: Growth inhibition of human NCI-H23 cells at 10 uM after 48 hrs by coulter counter analysis relative to control; assay type: functional; details: NCI-H23, 48 h, read-out: GI
[23] = test system: MOLT-4; assay: Growth inhibition of human MOLT4 cells at 10 uM after 48 hrs by coulter counter analysis relative to control; assay type: functional; details: MOLT-4, 48 h, read-out: GI
[24] = test system: Malme-3M; assay: Growth inhibition of human MALME-3M cells at 10 uM after 48 hrs by coulter counter analysis relative to control; assay type: functional; details: read-out: GI
[25] = test system: OVCAR-4; assay: Growth inhibition of human OVCAR4 cells at 10 uM after 48 hrs by coulter counter analysis relative to control; assay type: functional; details: OVCAR-4, 48 h, read-out: GI
[26] = test system: SF-539; assay: Growth inhibition of human SF539 cells at 10 uM after 48 hrs by coulter counter analysis relative to control; assay type: functional; details: SF-539, 48 h, read-out: GI
[27] = test system: HL-60(TB); assay: Growth inhibition of human HL-60(TB) cells at 10 uM after 48 hrs by coulter counter analysis relative to control; assay type: functional; details: HL-60, 48 h, read-out: GI
[28] = test system: Candida albicans; assay: Antifungal activity against Candida albicans at 5 mg/mL after 48 hrs; assay type: functional; details: read-out: DIZ
[29] = test system: NCI-H226; assay: Growth inhibition of human NCI-H226 cells at 10 uM after 48 hrs by coulter counter analysis relative to control; assay type: functional; details: NCI-H226, 48 h, read-out: GI
[30] = test system: HOP-92; assay: Growth inhibition of human HOP92 cells at 10 uM after 48 hrs by coulter counter analysis relative to control; assay type: functional; details: HOP-92, 48 h, read-out: GI
[31] = test system: RXF 393; assay: Growth inhibition of human RXF393 cells at 10 uM after 48 hrs by coulter counter analysis relative to control; assay type: functional; details: RXF 393, 48 h, read-out: GI
[32] = Growth inhibition of human EKVX cells at 10 uM after 48 hrs by coulter counter analysis relative to control; assay type: functional; details: read-out: GI
[33] = test system: TK-10; assay: Growth inhibition of human TK10 cells at 10 uM after 48 hrs by coulter counter analysis relative to control; assay type: functional; details: TK-10, 48 h, read-out: GI
[34] = test system: DU-145; assay: Growth inhibition of human DU145 cells at 10 uM after 48 hrs by coulter counter analysis relative to control; assay type: functional; details: DU-145, 48 h, read-out: GI
[35] = test system: NCI-H522; assay: Growth inhibition of human NCI-H522 cells at 10 uM after 48 hrs by coulter counter analysis relative to control; assay type: functional; details: NCI-H522, 48 h, read-out: GI
[36] = test system: SNB-19; assay: Growth inhibition of human SNB19 cells at 10 uM after 48 hrs by coulter counter analysis relative to control; assay type: functional; details: SNB-19, 48 h, read-out: GI
[37] = test system: CCRF-CEM; assay: Growth inhibition of human CCRF-CEM cells at 10 uM after 48 hrs by coulter counter analysis relative to control; assay type: functional; details: read-out: GI
[38] = test system: NCI-H460; assay: Growth inhibition of human NCI-H460 cells at 10 uM after 48 hrs by coulter counter analysis relative to control; assay type: functional; details: NCI-H460, 48 h, read-out: GI
[39] = test system: HT-29; assay: Growth inhibition of human HT-29 cells at 10 uM after 48 hrs by coulter counter analysis relative to control; assay type: functional; details: HT-29, 48 h, read-out: GI
[40] = test system: UACC-257; assay: Growth inhibition of human UACC257 cells at 10 uM after 48 hrs by coulter counter analysis relative to control; assay type: functional; details: UACC-257, 48 h, read-out: GI

Structure (SMILES)	mortality at 24 h, 500 ug/mL [1]	inhibition of growth at 10 µM [2]	inhibition of growth at 10 µM [3]	LC50 at 24 h [4]	LC90 [5]	zone of inhibition at 5000 µg/mL [6]	inhibition of growth at 10 µM [7]	inhibition of growth at 10 µM [8]	mortality at 24 h, 100 ug/mL [9]	inhibition of growth at 10 µM [10]	inhibition of growth at 10 µM [11]	zone of inhibition at 5000 µg/mL [12]	inhibition of growth at 10 µM [13]	inhibition of growth at 10 µM [14]	inhibition of growth at 10 µM [15]	inhibition of growth at 10 µM [16]	inhibition of growth at 10 µM [17]	inhibition of growth at 10 µM [18]	mortality at 24 h, 1000 ug/mL [19]	inhibition of growth at 10 µM [20]	also measured
CCOC(=O)C1C(=O)N=C2SC(S(N)(=O)=O)=NN2C1c1ccc(N(C)C)cc1 (stereo not given)	93.3%	< 10%	10.3%	405 µg/mL (≈ 951 µM)	728.74 µg/mL (≈ 1710 µM)	5 mm	13.7%	10.2%	83.3%	< 10%	< 10%	4 mm	< 10%	34.6%	18.5%	< 10%	< 10%	< 10%	100%	< 10%	inhibition of growth at 10 µM [21]: < 10%; inhibition of growth at 10 µM [22]: < 10%; inhibition of growth at 10 µM [23]: < 10%; inhibition of growth at 10 µM [24]: 14.9%; inhibition of growth at 10 µM [25]: < 10%; inhibition of growth at 10 µM [26]: < 10%; inhibition of growth at 10 µM [27]: 21%; zone of inhibition at 5000 µg/mL [28]: 10 mm; inhibition of growth at 10 µM [29]: < 10%; inhibition of growth at 10 µM [30]: 51.2%; inhibition of growth at 10 µM [31]: < 10%; inhibition of growth at 10 µM [32]: 12.2%; inhibition of growth at 10 µM [33]: < 10%; inhibition of growth at 10 µM [34]: < 10%; inhibition of growth at 10 µM [35]: 19.3%; inhibition of growth at 10 µM [36]: < 10%; inhibition of growth at 10 µM [37]: < 10%; inhibition of growth at 10 µM [38]: < 10%; inhibition of growth at 10 µM [39]: < 10%; inhibition of growth at 10 µM [40]: < 10%
N#Cc1cnc2sc(S(N)(=O)=O)nn2c1=O	83.3%	< 10%	< 10%	432 µg/mL (≈ 1680 µM)	777.87 µg/mL (≈ 3020 µM)	18 mm	< 10%	< 10%	70%	< 10%	< 10%	< 2 mm	< 10%	< 10%	12.8%	< 10%	< 10%	< 10%	96.6%	< 10%	inhibition of growth at 10 µM [21]: < 10%; inhibition of growth at 10 µM [22]: < 10%; inhibition of growth at 10 µM [23]: < 10%; inhibition of growth at 10 µM [24]: 28%; inhibition of growth at 10 µM [25]: < 10%; inhibition of growth at 10 µM [26]: < 10%; inhibition of growth at 10 µM [27]: 18.4%; zone of inhibition at 5000 µg/mL [28]: 4 mm; inhibition of growth at 10 µM [29]: < 10%; inhibition of growth at 10 µM [30]: 12.3%; inhibition of growth at 10 µM [31]: < 10%; inhibition of growth at 10 µM [32]: < 10%; inhibition of growth at 10 µM [33]: < 10%; inhibition of growth at 10 µM [34]: < 10%; inhibition of growth at 10 µM [35]: < 10%; inhibition of growth at 10 µM [36]: < 10%; inhibition of growth at 10 µM [37]: < 10%; inhibition of growth at 10 µM [38]: < 10%; inhibition of growth at 10 µM [39]: < 10%; inhibition of growth at 10 µM [40]: < 10%
N#Cc1cnc2sc(S(N)(=O)=O)nn2c1=N	90%	< 10%	< 10%	419 µg/mL (≈ 1640 µM)	754.4 µg/mL (≈ 2940 µM)	< 2 mm	< 10%	< 10%	80%	< 10%	< 10%	< 2 mm	< 10%	12%	< 10%	< 10%	< 10%	< 10%	96.6%	< 10%	inhibition of growth at 10 µM [21]: < 10%; inhibition of growth at 10 µM [22]: < 10%; inhibition of growth at 10 µM [23]: < 10%; inhibition of growth at 10 µM [24]: < 10%; inhibition of growth at 10 µM [25]: < 10%; inhibition of growth at 10 µM [26]: < 10%; inhibition of growth at 10 µM [27]: 29.3%; zone of inhibition at 5000 µg/mL [28]: < 2 mm; inhibition of growth at 10 µM [29]: < 10%; inhibition of growth at 10 µM [30]: 20.3%; inhibition of growth at 10 µM [31]: < 10%; inhibition of growth at 10 µM [32]: < 10%; inhibition of growth at 10 µM [33]: < 10%; inhibition of growth at 10 µM [34]: < 10%; inhibition of growth at 10 µM [35]: < 10%; inhibition of growth at 10 µM [36]: < 10%; inhibition of growth at 10 µM [37]: < 10%; inhibition of growth at 10 µM [38]: < 10%; inhibition of growth at 10 µM [39]: < 10%; inhibition of growth at 10 µM [40]: < 10%
